Experimental data: US10806785B2, “Immunomodulator compounds and methods of use” (Incyte Corporation, priority 2016, dated 2020)
Residues, ends and D or L forms follow the SMILES beside them.

molecular target: T1, PD-1/PD-L1 (Homo sapiens (Human), UniProt Q9NZQ7); assay: PD-1/PD-L1 binding assay (Alphascreen)
Method: Binding assays were conducted in a low volume white 384-well polystyrene plate in a final volume of 20 μL. Compounds to be analyzed were first serially diluted in DMSO and added to the plate wells before the addition of other reaction components. The final concentration of DMSO in the assay was 1%. The assay was carried out at 25° C. in the PBS buffer (pH 7.4) with 0.05% Tween-20 and 0.1% BSA. Recombinant human PD-L1 protein (19-238) with a His-tag at the C-terminus was purchased from AcroBiosystems (PD1-H5229). Recombinant human PD-1 protein (25-167) with Fc tag at the C-terminus was also from AcroBiosystems (PD1-H5257). PD-L1 and PD-1 proteins were diluted in the assay buffer (final concentration −0.67 and 0.20 nM respectively) and 10 μL was added to the plate well. Plates were centrifuged and proteins were preincubated with compounds for 40 minutes. The incubation was followed by the addition of 10 μL of assay buffer supplemented with Alphascreen Ni chelate donor beads (PerkinElmer-AS101D) and Protein A Acceptor beads (PerkinElmer-6760137) at final concentration 2.5 μg/mL under reduced light. After plate sealing, the plate was incubated in the dark at room temperature for 120 minutes before reading on a PHERAstar FS plate reader (BMG Labtech). […]

T1 sequence (Q9NZQ7 19-238): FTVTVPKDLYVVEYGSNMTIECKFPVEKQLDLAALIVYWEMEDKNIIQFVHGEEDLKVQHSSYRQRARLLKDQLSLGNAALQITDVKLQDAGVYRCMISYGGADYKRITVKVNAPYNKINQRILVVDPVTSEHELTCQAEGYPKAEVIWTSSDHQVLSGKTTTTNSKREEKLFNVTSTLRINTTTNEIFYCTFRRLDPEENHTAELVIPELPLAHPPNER

| IC50 | SMILES |
| --- | --- |
| > 1 nM | CCCC[C@H]1C(=O)N(C)CC(=O)N[C@@H](CC(=O)O)C(=O)N[C@@H](C(C)C)C(=O)N(C)[C@@H](Cc2ccccc2)C(=O)N[C@@H](Cc2ccc(O)cc2)C(=O)N(C)CC(=O)N[C@@H](Cc2c[nH]c3ccccc23)C(=O)N[C@@H](Cc2ccc(O)cc2)C(=O)N[C@@H](CC(C)C)C(=O)N[C@H](C(=O)NCC(N)=O)CSCC(=O)N[C@@H](Cc2ccccc2)C(=O)N(C)[C@@H](Cc2ccccc2)C(=O)N1C [Cpd 27] (HELM PEPTIDE1{[O=C(C[*:3])[*:2]].F.[meF].[CCCC[C@@H](C(=O)[*:2])N(C)[*:1]].[Sar].D.V.[meF].Y.[Sar].W.Y.L.C.G.[am]}$PEPTIDE1,PEPTIDE1,1:R3-14:R3$$$V2.0) |

molecular target: T1, PD-1/PD-L1; assay: PD-1/PD-L1 binding assay (HTRF)
How it was run: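 HTRF read-out (665/620 nm) after 60 min at 25 °C with 1 nM Eu anti-human IgG and 20 nM APC anti-His. Beforehand, inhibitors were preincubated 40 min with Fc-PD-1 (25-167, […] as listed) and His-PD-L1 (19-238, 10 nM) in PBS pH 7.4 with Tween-20, BSA, 1% DMSO; IC50 from log-concentration curve.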

| IC50 | SMILES |
| --- | --- |
| ≤ 10 nM | Cc1c(NC(=O)c2nc3c(n2C)CCN(CC24CCC(C(=O)O)(CC2)C4)C3)cccc1-c1cccc(NC(=O)c2nc3c(n2C)CCN(C)C3)c1Cl [Example 102, 4-((2-((2′-chloro-3′-(1,5-dimethyl-4,5,6,7-tetrahydro-1H-imidazo[4,5-c]pyridine-2-carboxamido)-2-methyl-[1,1′-biphenyl]-3-yl)carbamoyl)-1-methyl-1,4,6,7-tetrahydro-5H-imidazo[4,5-c]pyridin-5-yl)methyl)bicyclo[2.2.1]heptane-1-carboxylic acid] |
| ≤ 10 nM | Cc1c(COc2cc(OCc3cncc(C#N)c3)c(CN3CCCC[C@H]3C(=O)O)cc2Cl)cccc1-c1cccc(NC(=O)c2nc3c(n2C)CCN(C)C3)c1Cl [Example 54, (S)-1-(5-chloro-4-((2′-chloro-3′-(1,5-dimethyl-4,5,6,7-tetrahydro-1H-imidazo[4,5-c]pyridine-2-carboxamido)-2-methyl-[1,1′-biphenyl]-3-yl)methoxy)-2-((5-cyanopyridin-3-yl)methoxy)benzyl)piperidine-2-carboxylic acid] |
| ≤ 10 nM | Cc1c(NC(=O)c2nc3c(n2C)CCN(C2CCCC2)C3)cccc1-c1cccc(NC(=O)c2nc3c(n2C)CCN(CC[C@H]2CC[C@H](C(=O)O)CC2)C3)c1Cl [Example 130, trans-4-(2-(2-((2-chloro-3′-(5-cyclopentyl-1-methyl-4,5,6,7-tetrahydro-1H-imidazo[4,5-c]pyridine-2-carboxamido)-2′-methyl-[1,1′-biphenyl]-3-yl)carbamoyl)-1-methyl-1,4,6,7-tetrahydro-5H-imidazo[4,5-c]pyridin-5-yl)ethyl)cyclohexane-1-carboxylic acid] |
| ≤ 10 nM | Cc1c(NC(=O)c2nc3c(n2C)CCN(C2CCN(S(C)(=O)=O)CC2)C3)cccc1-c1cccc(NC(=O)c2nc3c(n2C)CCN(C)C3)c1Cl [Example 28, N-(2-chloro-2′-methyl-3′-(1-methyl-5-(1-(methylsulfonyl)piperidin-4-yl)-4,5,6,7-tetrahydro-1H-imidazo[4,5-c]pyridine-2-carboxamido)biphenyl-3-yl)-1,5-dimethyl-4,5,6,7-tetrahydro-1H-imidazo[4,5-c]pyridine-2-carboxamide] |
| ≤ 10 nM | Cn1c(C(=O)Nc2cccc(-c3cccc(NC(=O)c4nc5c(n4C)CCN(CC[C@H]4CC[C@H](C(=O)O)CC4)C5)c3Cl)c2Cl)nc2c1CCNC2 [Example 85, trans-4-(2-(2-((2,2′-dichloro-3′-(1-methyl-4,5,6,7-tetrahydro-1H-imidazo[4,5-c]pyridine-2-carboxamido)-[1,1′-biphenyl]-3-yl)carbamoyl)-1-methyl-1,4,6,7-tetrahydro-5H-imidazo[4,5-c]pyridin-5-yl)ethyl)cyclohexane-1-carboxylic acid] |
| ≤ 10 nM | CN1CCc2c(nc(C(=O)Nc3cccc(-c4cccc(NC(=O)c5nc6c(n5C)CCN(CCc5ccc(C(=O)O)cc5)C6)c4Cl)c3Cl)n2C)C1 [Example 78, 4-(2-(2-((2,2′-dichloro-3′-(1,5-dimethyl-4,5,6,7-tetrahydro-1H-imidazo[4,5-c]pyridine-2-carboxamido)-[1,1′-biphenyl]-3-yl)carbamoyl)-1-methyl-1,4,6,7-tetrahydro-5H-imidazo[4,5-c]pyridin-5-yl)ethyl)benzoic acid] |
| ≤ 10 nM | Cn1c(C(=O)Nc2cccc(-c3cccc(NC(=O)c4nc5c(n4C)CCN(C4CCOCC4)C5)c3C#N)c2Cl)nc2c1CCN(CC[C@H]1CC[C@H](C(=O)O)CC1)C2 [Compound 153, trans-4-(2-(2-((2-chloro-2′-cyano-3′-(1-methyl-5-(tetrahydro-2H-pyran-4-yl)-4,5,6,7-tetrahydro-1H-imidazo[4,5-c]pyridine-2-carboxamido)-[1,1′-biphenyl]-3-yl)carbamoyl)-1-methyl-1,4,6,7-tetrahydro-5H-imidazo[4,5-c]pyridin-5-yl)ethyl)cyclohexane-1-carboxylic acid] |
| ≤ 10 nM | Cc1c(NC(=O)c2nc3c(n2C)CCN(C2CCC(C)(C(=O)O)CC2)C3)cccc1-c1cccc(NC(=O)c2nc3c(n2C)CCN(C)C3)c1Cl (stereo not drawn) [Example 35, 4-(2-(2′-chloro-3′-(1,5-dimethyl-4,5,6,7-tetrahydro-1H-imidazo[4,5-c]pyridine-2-carboxamido)-2-methylbiphenyl-3-ylcarbamoyl)-1-methyl-6,7-dihydro-1H-imidazo[4,5-c]pyridin-5(4H)-yl)-1-methylcyclohexanecarboxylic acid] |
| ≤ 10 nM | CCN1CCc2c(nc(C(=O)Nc3cccc(-c4cccc(NC(=O)c5nc6c(n5C)CCN(CC[C@H]5CC[C@H](C(=O)O)CC5)C6)c4Cl)c3Cl)n2C)C1 [Example 86, trans-4-(2-(2-((2,2′-dichloro-3′-(5-ethyl-1-methyl-4,5,6,7-tetrahydro-1H-imidazo[4,5-c]pyridine-2-carboxamido)-[1,1′-biphenyl]-3-yl)carbamoyl)-1-methyl-1,4,6,7-tetrahydro-5H-imidazo[4,5-c]pyridin-5-yl)ethyl)cyclohexane-1-carboxylic acid] |
| ≤ 10 nM | Cn1c(C(=O)Nc2cccc(-c3cccc(NC(=O)c4nc5c(n4C)CCN(C4CCC(C)(C(=O)O)CC4)C5)c3Cl)c2Cl)nc2c1CCN(C1CCOCC1)C2 (stereo not drawn) [Example 98, 4-(2-((2,2′-dichloro-3′-(1-methyl-5-(tetrahydro-2H-pyran-4-yl)-4,5,6,7-tetrahydro-1H-imidazo[4,5-c]pyridine-2-carboxamido)-[1,1′-biphenyl]-3-yl)carbamoyl)-1-methyl-1,4,6,7-tetrahydro-5H-imidazo[4,5-c]pyridin-5-yl)-1-methylcyclohexane-1-carboxylic acid] |
| ≤ 10 nM | Cc1c(NC(=O)c2nc3c(n2C)CCN(C)C3)cccc1-c1cccc(NC(=O)c2nc3c(n2C)CCN(CC[C@H]2CC[C@H](C(=O)O)CC2)C3)c1Cl [Example 115, trans-4-(2-(2-((2-chloro-3′-(1,5-dimethyl-4,5,6,7-tetrahydro-1H-imidazo[4,5-c]pyridine-2-carboxamido)-2′-methyl-[1,1′-biphenyl]-3-yl)carbamoyl)-1-methyl-1,4,6,7-tetrahydro-5H-imidazo[4,5-c]pyridin-5-yl)ethyl)cyclohexane-1-carboxylic acid] |
| ≤ 10 nM | Cn1c(C(=O)Nc2cccc(-c3cccc(NC(=O)c4nc5c(n4C)CCN(C4CCCCC4)C5)c3Cl)c2Cl)nc2c1CCN(CC[C@H]1CC[C@H](C(=O)O)CC1)C2 [Example 91, trans-4-(2-(2-((2,2′-dichloro-3′-(5-cyclohexyl-1-methyl-4,5,6,7-tetrahydro-1H-imidazo[4,5-c]pyridine-2-carboxamido)-[1,1′-biphenyl]-3-yl)carbamoyl)-1-methyl-1,4,6,7-tetrahydro-5H-imidazo[4,5-c]pyridin-5-yl)ethyl)cyclohexane-1-carboxylic acid] |
| ≤ 10 nM | Cc1c(NC(=O)c2nc3c(n2C)CCN(C[C@@H](C)O)C3)cccc1-c1cccc(NC(=O)c2nc3c(n2C)CCN(C2CCC(C)(C(=O)O)CC2)C3)c1Cl (mixture of isomers) [Compound 141, (R)-4-(2-((2-chloro-3′-(5-(2-hydroxypropyl)-1-methyl-4,5,6,7-tetrahydro-1H-imidazo[4,5-c]pyridine-2-carboxamido)-2′-methyl-[1,1′-biphenyl]-3-yl)carbamoyl)-1-methyl-1,4,6,7-tetrahydro-5H-imidazo[4,5-c]pyridin-5-yl)-1-methylcyclohcxane-1-carboxylic acid] |
| ≤ 10 nM | Cc1c(-c2nc3c(o2)CN(C(=O)CN[C@H]2C[C@H](O)C2)C3)cccc1-c1cccc(NC(=O)c2nc3c(n2C)CCN(C)C3)c1Cl [Compound 166, N-(2-chloro-3′-(5-((trans-3-hydroxycyclobutyl)glycyl)-5,6-dihydro-4H-pyrrolo[3,4-d]oxazol-2-yl)-2′-methyl-[1,1′-biphenyl]-3-yl)-1,5-dimethyl-4,5,6,7-tetrahydro-1H-imidazo[4,5-c]pyridine-2-carboxamide] |
